Among the test systems are RXF 393 renal; K-562 leukemia; IGROV1 ovarian; NCI-H226 lung; HCT-116 colon; MOLT-4 leukemia; HCT-15 colon; SK-MEL-28 melanoma; NCI-H522 lung; OVCAR-5 ovarian; CAKI-1 renal.
Assay in all cases: DTP human tumour cell line panel, 48 h

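Five compound concentrations were applied to cells in 96-well plates for 48 hours; endpoints were derived by simple linear interpolation of the resulting dose-response curve. TGI denotes the concentration required for complete inhibition of growth.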

Turning to `Cn1c2c(c3c(=O)[nH]ncc31)CCc1ccccc1-2`, the total growth inhibition concentration (TGI) in the test on RXF 393 renal was 39.6 µM; in the test on K-562 leukemia, more than 100 µM; in the test with IGROV1 ovarian, 60.2 µM; with NCI-H226 lung it was 94.4 µM; with HCT-116 colon, 64.2 µM; in the test on MOLT-4 leukemia, 75 µM. In addition, the concentration for total growth inhibition (TGI) in the test on HCT-15 colon is 67.3 µM; with SK-MEL-28 melanoma, 70.8 µM; in the test on NCI-H522 lung, more than 100 µM; in the test on OVCAR-5 ovarian, more than 100 µM; in the test with CAKI-1 renal, more than 100 µM.
As for `COC(=N)C(C)C`, the TGI in the test on RXF 393 renal, with K-562 leukemia, with IGROV1 ovarian, in the test with NCI-H226 lung, with HCT-116 colon and in the test on MOLT-4 leukemia was more than 100 µM throughout. In addition, the total growth inhibition concentration (TGI) with HCT-15 colon, with SK-MEL-28 melanoma, with NCI-H522 lung, in the test with OVCAR-5 ovarian and in the test with CAKI-1 renal was more than 100 µM each time.
Take `CCOc1cc(NC(C)=O)ccc1C(=O)N/N=C/c1ccco1`: the TGI is more than 100 µM in the test with RXF 393 renal; more than 100 µM with K-562 leukemia; more than 100 µM in the test with IGROV1 ovarian; more than 100 µM in the test with NCI-H226 lung; more than 100 µM with HCT-116 colon; 74.6 µM in the test with MOLT-4 leukemia. For the same molecule, the total growth inhibition concentration (TGI) with HCT-15 colon, in the test on SK-MEL-28 melanoma, with NCI-H522 lung, in the test on OVCAR-5 ovarian and with CAKI-1 renal was more than 100 µM throughout.

The TGI is the concentration at which net growth stops. A low value points to greater sensitivity of the cells.

These data come from PubChem BioAssay (NCI).
